These results are taken from patent US8012939B2 (Tibotec Pharmaceuticals Ltd. Co, priority 2005, dated 2011).

SMILES strings stand for the structures.

The test system of assay [1] is HCV replicons (HCV type 1b, Huh-7 luc/neo cells). Briefly: Replicon assay (Huh-Luc cells, luciferase read-out). It counts as cell-based. The following applies: Hepatitis C virus, Huh-7, 72 h. An excerpt: The compounds of formula (I) were examined for activity in the inhibition of HCV RNA replication in a cellular assay. […] The cellular assay was based on a bicistronic expression construct, as described by Lohmann et al. (1999) Science vol. 285 pp. 110-113 with modifications described by Krieger et al. (2001) Journal of Virology 75: 4614-4624, in a multi-target screening strategy. In essence, the method was as follows.
The assay utilized the stably transfected cell line Huh-7 luc/neo (hereafter referred to as Huh-Luc). This cell line harbors an RNA encoding a bicistronic expression construct comprising the wild type NS3-NS5B regions of HCV type 1b translated from an Internal Ribosome Entry Site (IRES) from encephalomyocarditis virus (EMCV), preceded by a reporter portion (FfL-luciferase), and a selectable marker portion (neo^R, neomycine phosphotransferase). The construct is bordered by 5′ and 3′ NTRs (non-translated regions) from HCV type 1b. Continued culture of the replicon cells in the presence of G418 (neo^R) is dependent on the replication of the HCV RNA. The stably transfected replicon cells that express HCV RNA, which replicates autonomously and to high levels, encoding inter alia luciferase, are used for screening the antiviral compounds.
The replicon cells were plated in 384 well plates in the presence of the test and control compounds which were added in various concentrations. Following an incubation of three days, HCV replication was measured by assaying luciferase activity (using standard luciferase assay substrates and reagents and a Perkin Elmer ViewLux™ ultraHTS microplate imager). Replicon cells in the control cultures have high luciferase expression in the absence of any inhibitor. The inhibitory activity of the compound on luciferase activity was monitored on the Huh-Luc cells, enabling a doseresponse curve for each test compound.

Assay [2] deals with T1, HCV NS3/4A protease complexes (full-length hepatitis C NS3 protease enzyme with NS4A cofactor) (Hepatitis C virus genotype 1a, UniProt P27958).
T1 construct: full-length hepatitis C NS3 protease enzyme
Briefly: Inhibition assay (enzymatic assay, depsipeptide substrate hydrolysis). It counts as biochemical. The note with it: enzyme 1 nM, 25 μM NS4A cofactor, 0.5 μM substrate, 30° C., pH 7.5, model for competitive inhibition. The method, then:
[Landro, 1997 #Biochem 36 9340-9348]. […] The solutions were stored at −20° C. between measurements.
[Liu, 1999 Analytical Biochemistry 267 331-335].

The mark [3] stands for this setting: Huh-Luc cells, incubation of three days, luciferase activity.

T1 sequence (P27958 1027-1657, one chain of several): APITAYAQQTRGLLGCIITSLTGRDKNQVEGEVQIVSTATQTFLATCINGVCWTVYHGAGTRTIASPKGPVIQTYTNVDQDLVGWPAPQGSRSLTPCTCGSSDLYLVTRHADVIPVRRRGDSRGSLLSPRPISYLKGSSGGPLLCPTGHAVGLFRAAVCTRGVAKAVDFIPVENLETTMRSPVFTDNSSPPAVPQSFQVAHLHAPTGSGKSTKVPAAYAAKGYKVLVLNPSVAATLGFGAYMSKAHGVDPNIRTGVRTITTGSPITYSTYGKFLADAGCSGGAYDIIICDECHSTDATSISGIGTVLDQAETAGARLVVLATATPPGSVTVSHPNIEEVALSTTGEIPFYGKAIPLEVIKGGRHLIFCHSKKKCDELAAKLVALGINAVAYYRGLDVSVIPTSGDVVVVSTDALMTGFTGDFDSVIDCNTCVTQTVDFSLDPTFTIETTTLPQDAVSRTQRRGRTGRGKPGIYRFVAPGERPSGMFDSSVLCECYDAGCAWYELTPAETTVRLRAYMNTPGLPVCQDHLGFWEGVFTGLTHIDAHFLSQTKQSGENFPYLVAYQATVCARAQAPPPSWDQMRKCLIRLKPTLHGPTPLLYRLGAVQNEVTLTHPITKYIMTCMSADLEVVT

By EC50 is commonly meant the concentration that produces a half-maximal response. Broadly, the Ki is a measure of affinity in units of concentration, obtained from inhibition or displacement. A higher Ki goes with a looser hold on the target. In the case of `COc1ccc2c(OC3CC4C(=O)NC5(C(=O)O)CC5C=CCCCCN(C)C(=O)C4C3)nc(-c3nc(C4CC4)cs3)cc2c1` (stereo not shown) [Compound 29, 17-[3-(4-cyclopropylthiazol-2-yl)-6-methoxy-isoquinolin-1-yloxy]-13-methyl-2,14-dioxo-3,13-diazatricyclo[13.3.0.0^4,6]octadec-7-ene-4-carboxylic acid], the EC50 in assay [1] (setting [3]) was above 10 µM. The same molecule had an inhibition constant Ki in assay [2] of 0.15 µM.
As to `COc1ccc2c(O[C@@H]3C[C@H]4C(=O)N[C@]5(C(=O)NS(=O)(=O)C6CC6)C[C@H]5/C=C\CCCCN(C)C(=O)[C@@H]4C3)nc(-c3nc(C4CC4)cs3)cc2c1` [Compound 30, N-[17-[3-(4-cyclopropylthiazol-2-yl)-6-methoxyisoquinolin-1-yloxy]-13-methyl-2,14-dioxo-3,13-diazatricyclo[13.3.0.0^4,6]octadec-7-ene-4-carbonyl](cyclopropyl)sulfonamide], the EC50 in assay [1] (setting [3]) worked out at 3.03 µM. In assay [2], this molecule displayed a Ki of 0.0017 µM.
Take `COc1ccc2c(O[C@@H]3C[C@H]4C(=O)N[C@]5(C(=O)O)C[C@H]5/C=C\CCCCN(C)C(=O)[C@@H]4C3)nc(-c3nc(C(C)C)cs3)cc2c1` [Compound 31, 17-[3-(4-isopropylthiazol-2-yl)-6-methoxyisoquinolin-1-yloxy]-13-methyl-2,14-dioxo-3,13-diazatricyclo[13.3.0.0^4,6]octadec-7-ene-4-carboxylic acid]: the concentration giving a half-maximal response (EC50) in assay [1] (setting [3]) was above 10 µM. This molecule yielded an inhibition constant Ki in assay [2] of 0.3 µM.
For `COc1ccc2c(O[C@@H]3C[C@H]4C(=O)N[C@]5(C(=O)NS(=O)(=O)C6CC6)C[C@H]5/C=C\CCCCN(C)C(=O)[C@@H]4C3)nc(-c3nc(C(C)C)cs3)cc2c1` [Compound 32, N-[17-[3-(4-isopropylthiazol-2-yl)-6-methoxyisoquinolin-1-yloxy]-13-methyl-2,14-dioxo-3,13-diazatricyclo[13.3.0.0^4,6]octadec-7-ene-4-carbonyl](cyclopropyl)sulfonamide] the same measures were 3.57 µM and 0.0014 µM.
Consider `COc1ccc2c(O[C@@H]3C[C@H]4C(=O)N[C@]5(C(=O)O)C[C@H]5/C=C\CCCCN(C)C(=O)[C@@H]4C3)nc(-c3csc(NC(C)C)n3)cc2c1` [Compound 33, 17-[3-(2-isopropylaminothiazol-4-yl)-6-methoxyisoquinolin-1-yloxy]-13-methyl-2,14-dioxo-3,13-diazatricyclo[13.3.0.0^4,6]octadec-7-ene-4-carboxylic acid], for which the EC50 in assay [1] (setting [3]) is 47.5 µM. The Ki in assay [2] was above 1 µM.
For `COc1ccc2c(O[C@@H]3C[C@H]4C(=O)N[C@]5(C(=O)NS(=O)(=O)C6CC6)C[C@H]5/C=C\CCCCN(C)C(=O)[C@@H]4C3)nc(-c3csc(NC(C)C)n3)cc2c1` [Compound 34, N-[17-[3-(2-isopropylaminothiazol-4-yl)-6-methoxyisoquinolin-1-yloxy]-13-methyl-2,14-dioxo-3,13-diazatricyclo[13.3.0.0^4,6]octadec-7-ene-4-carbonyl](cyclopropyl)sulfonamide] the same measures were 1.65 µM and 0.0033 µM.
For the molecule `COc1ccc2c(O[C@@H]3C[C@H]4C(=O)N[C@]5(C(=O)O)C[C@H]5/C=C\CCCCN(C)C(=O)[C@@H]4C3)nc(-n3cccn3)cc2c1` [Compound 35, 17-[3-(pyrazol-1-yl)-6-methoxyisoquinolin-1-yloxy]-13-methyl-2,14-dioxo-3,13-diazatricyclo[13.3.0.0^4,6]octadec-7-ene-4-carboxylic acid], the EC50 in assay [1] came to 20.9 µM. In assay [2], this molecule returned a Ki above 1 µM.
With `COc1ccc2c(O[C@@H]3C[C@H]4C(=O)N[C@]5(C(=O)NS(=O)(=O)C6CC6)C[C@H]5/C=C\CCCCN(C)C(=O)[C@@H]4C3)nc(-n3cccn3)cc2c1` [Compound 36, N-[17-[3-(pyrazol-1-yl)-6-methoxyisoquinolin-1-yloxy]-13-methyl-2,14-dioxo-3,13-diazatricyclo[13.3.0.0^4,6]octadec-7-ene-4-carbonyl]-(cyclopropyl) sulfonamide], in assay [1] (setting [3]), the EC50 stood at 0.072 µM. In assay [2], this molecule came in with an inhibitory constant (Ki) of 0.0007 µM.
Consider `COc1ccc2c(O[C@@H]3C[C@H]4C(=O)N[C@]5(C(=O)O)C[C@H]5/C=C\CCCCN(C)C(=O)N4C3)nc(Cl)cc2c1` [Compound 42, 17-(3-chloro-6-methoxyisoquinolin-1-yloxy)-13-methyl-2,14-dioxo-3,13,15-triaza-tricyclo[13.3.0.0^4,6]octadec-7-ene-4-carboxylic acid], for which the half-maximal effective concentration (EC50) in assay [1] (setting [3]) was above 10 µM. This molecule displayed a Ki in assay [2] of 0.62 µM.
As for `COc1ccc2c(O[C@@H]3C[C@H]4C(=O)N[C@]5(C(=O)NS(=O)(=O)C6CC6)C[C@H]5/C=C\CCCCN(C)C(=O)N4C3)nc(Cl)cc2c1` [Compound 43, N-[17-(3-chloro-6-methoxyisoquinolin-1-yloxy)-13-methyl-2,14-dioxo-3,13,15-triaza-tricyclo[13.3.0.0^4,6]octadec-7-ene-4-carbonyl](cyclopropyl) sulfonamide], the EC50 in assay [1] (setting [3]) was 2.1 µM. Moreover, in assay [2], the affinity, expressed as Ki, was 0.015 µM.
Take `COc1ccc2c(O[C@@H]3C[C@H]4C(=O)N[C@]5(C(=O)O)C[C@H]5/C=C\CCCCN(C)C(=O)N4C3)nccc2c1Br` [Compound 50, 17-(5-bromo-6-methoxyisoquinolin-1-yloxy)-13-methyl-2,14-dioxo-3,13,15-triazatricyclo[13.3.0.0^4,6]octadec-7-ene-4-carboxylic acid]: the Ki in assay [2] was above 1 µM.
Consider `COc1ccc2c(O[C@@H]3C[C@H]4C(=O)N[C@]5(C(=O)NS(=O)(=O)C6CC6)C[C@H]5/C=C\CCCCN(C)C(=O)N4C3)nccc2c1Br` [Compound 51, N-[17-(5-bromo-6-methoxyisoquinolin-1-yloxy)-13-methyl-2,14-dioxo-3,13,15-triaza-tricyclo[13.3.0.0^4,6]octadec-7-ene-4-carbonyl](cyclopropyl)sulfonamide], for which the EC50 in assay [1] (setting [3]) is 0.058 µM. For the same molecule, the Ki in assay [2] turned out to be 0.0017 µM.
On to `COc1ccc2c(O[C@@H]3C[C@H]4C(=O)N[C@]5(C(=O)NS(=O)(=O)C6CC6)C[C@H]5/C=C\CCCCN(C)C(=O)N4C3)nccc2c1-c1ccc(C)nc1` [Compound 52], for which, in assay [1] (setting [3]), the concentration giving a half-maximal response (EC50) was above 10 µM.
As for `COc1ccc(-c2c(OC)ccc3c(O[C@@H]4C[C@H]5C(=O)N[C@]6(C(=O)NS(=O)(=O)C7CC7)C[C@H]6/C=C\CCCCN(C)C(=O)N5C4)nccc23)cc1` [Compound 53, N-[17-[5-(4-methoxyphenyl)-6-methoxyisoquinolin-1-yloxy]-13-methyl-2,14-dioxo-3,13,15-triaza-tricyclo[13.3.0.0^4,6]octadec-7-ene-4-carbonyl](cyclopropyl)sulfonamide], the EC50 in assay [1] (setting [3]) was above 10 µM.
`COc1ccc2c(O[C@@H]3C[C@H]4C(=O)N[C@]5(C(=O)NS(=O)(=O)C6CC6)C[C@H]5/C=C\CCCCN(C)C(=O)N4C3)nccc2c1-c1ccccc1` [Compound 54, N-[17-[5-phenyl-6-methoxyisoquinolin-1-yloxy]-13-methyl-2,14-dioxo-3,13,15-triaza-tricyclo[13.3.0.0^4,6]octadec-7-ene-4-carbonyl](cyclopropyl) sulfonamide]: the EC50 in assay [1] (setting [3]) is above 10 µM.
With `COc1ccc2c(O[C@@H]3C[C@H]4C(=O)N[C@]5(C(=O)O)C[C@H]5/C=C\CCCCN(C)C(=O)N4C3)nccc2c1` [Compound 55, 17-(6-methoxyisoquinolin-1-yloxy)-13-methyl-2,14-dioxo-3,13,15-triaza-tricyclo[13.3.0.0^4,6]octadec-7-ene-4-carboxylic acid], the EC50 in assay [1] (setting [3]) is above 100 µM. The same molecule yielded a Ki in assay [2] above 1 µM.
As for `COc1ccc2c(O[C@@H]3C[C@H]4C(=O)N[C@]5(C(=O)NS(=O)(=O)C6CC6)C[C@H]5/C=C\CCCCN(C)C(=O)N4C3)nc(-c3ccc(OC(F)(F)F)cc3)cc2c1` [Compound 58, N-[17-(3-(4-trifluoromethoxyphenyl)-6-methoxyisoquinolin-1-yloxy)-13-methyl-2,14-dioxo-3,13,15-triaza-tricyclo[13.3.0.0^4,6]octadec-7-ene-4-carbonyl](cyclopropyl)sulfonamide], in assay [1] (setting [3]), the EC50 was determined as 2.31 µM.
Same read-out and setting: the same measure for `COc1ccc2c(O[C@@H]3C[C@H]4C(=O)N[C@]5(C(=O)NS(=O)(=O)C6CC6)C[C@H]5/C=C\CCCCN(C)C(=O)N4C3)ncc(Br)c2c1` [Compound 66, N-[17-(4-bromo-6-methoxyisoquinolin-1-yloxy)-13-methyl-2,14-dioxo-3,13,15-triaza-tricyclo[13.3.0.0^4,6]octadec-7-ene-4-carbonyl](cyclopropyl) sulfonamide]: 0.323 µM.
`COc1ccc2c(O[C@@H]3C[C@H]4C(=O)N[C@]5(C(=O)O)C[C@H]5/C=C\CCCCN(C)C(=O)N4C3)nc(-c3csc(NC(C)C)n3)cc2c1` [Compound 71, 17-[3-(2-isopropylaminothiazol-4-yl)-6-methoxyisoquinolin-1-yloxy]-13-methyl-2,14-dioxo-3,13,15-triaza-tricyclo[13.3.0.0^4,6]octadec-7-ene-4-carboxylic acid]: in assay [1] (setting [3]), the EC50 is above 10 µM.
